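Five compound concentrations were applied to cells in 96-well plates for 48 hours; endpoints were derived by simple linear interpolation of the resulting dose-response curve. GI50 is the concentration that inhibits growth by half.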 Active and inactive are the calls of the source. Rule as the data show it: active = GI50 up to about 1.1 µM and inactive = higher.
Legend:
Assay in all cases: NCI-60 cell line screen, 48 h
IGROV-1 = tested on: IGROV-1
HCT-116 = tested on: HCT-116
U-251 = tested on: U-251
T47D = tested on: T47D
M14 = tested on: M14
NCI-H226 = tested on: NCI-H226
SF-268 = tested on: SF-268
MDA-MB-435 = tested on: MDA-MB-435
SK-OV-3 = tested on: SK-OV-3
SK-MEL-28 = tested on: SK-MEL-28
NCI-H23 = tested on: NCI-H23
HCC 2998 = tested on: HCC 2998
LOX IMVI = tested on: LOX IMVI
SNB-19 = tested on: SNB-19
SK-MEL-5 = tested on: SK-MEL-5
CAKI-1 = tested on: CAKI-1
UACC-257 = tested on: UACC-257
SK-MEL-2 = tested on: SK-MEL-2
A549 = tested on: A549
786-0 = tested on: 786-0

Measured: GI50

OCCSCC(O)Cn1cnc2c(O)nc(Nc3ccccc3)nc21 (stereo not given)
inactive: IGROV-1 > 100 µM | HCT-116 > 100 µM | U-251 > 100 µM | T47D > 100 µM | M14 > 100 µM | NCI-H226 > 100 µM | SF-268 > 100 µM | MDA-MB-435 > 100 µM | SK-OV-3 > 100 µM | SK-MEL-28 > 100 µM | NCI-H23 > 100 µM | HCC 2998 > 100 µM | LOX IMVI > 100 µM | SNB-19 > 100 µM | SK-MEL-5 > 100 µM | CAKI-1 > 100 µM | UACC-257 > 100 µM | SK-MEL-2 > 100 µM | A549 > 100 µM | 786-0 > 100 µM

COc1ccc(CC(COS(=O)(=O)c2ccc(C)cc2)NS(=O)(=O)c2ccc(C)cc2)cc1 (stereo not given)
inactive: IGROV-1 7.87 µM | HCT-116 12.8 µM | U-251 11.8 µM | T47D 5.45 µM | M14 8.34 µM | NCI-H226 7.4 µM | SF-268 12.2 µM | MDA-MB-435 13.9 µM | SK-OV-3 15.2 µM | SK-MEL-28 15.5 µM | NCI-H23 13.7 µM | HCC 2998 11.9 µM | LOX IMVI 19.5 µM | SNB-19 12.6 µM | SK-MEL-5 9.02 µM | CAKI-1 17.4 µM | UACC-257 15.8 µM | SK-MEL-2 15.1 µM | A549 12.1 µM | 786-0 16 µM

CCCCc1ccc(-n2sc3ncc([N+](=O)[O-])cc3c2=O)cc1
inactive: IGROV-1 13.8 µM | HCT-116 8.57 µM | U-251 12.6 µM | T47D 10.1 µM | M14 17.4 µM | NCI-H226 12.8 µM | SF-268 13 µM | MDA-MB-435 14.4 µM | SK-OV-3 > 100 µM | SK-MEL-28 14.1 µM | NCI-H23 11.2 µM | HCC 2998 12.5 µM | LOX IMVI 13.3 µM | SNB-19 13.7 µM | SK-MEL-5 14.6 µM | CAKI-1 13.4 µM | UACC-257 16.6 µM | SK-MEL-2 1.57 µM | A549 12.9 µM | 786-0 15 µM

CSc1c(C(N)=S)c(N)nn1-c1ccccc1
inactive: IGROV-1 > 100 µM | HCT-116 > 100 µM | U-251 > 100 µM | T47D > 100 µM | M14 > 100 µM | NCI-H226 > 100 µM | SF-268 > 100 µM | MDA-MB-435 > 100 µM | SK-OV-3 > 100 µM | SK-MEL-28 > 100 µM | NCI-H23 > 100 µM | HCC 2998 > 100 µM | LOX IMVI > 100 µM | SNB-19 > 100 µM | SK-MEL-5 > 100 µM | CAKI-1 > 100 µM | UACC-257 > 100 µM | SK-MEL-2 > 100 µM | A549 > 100 µM | 786-0 > 100 µM

— ChEMBL document CHEMBL1201862, “PubChem BioAssay data set” (2004)
